Experiment [1] deals with platelets (collagen-induced aggregation). Nature of the experiment: Antithrombocyte aggregation test in vitro (ATA-8), collagen-induced, platelet rich plasma. Type of experiment: cell-based, human (Community Research Clinic volunteers). To be noted: Homo sapiens. The protocol:
(§1) ANTITHROMBOCYTE AGGREGATION TEST-IN VITRO (ATA-8)
Source and Preparation of Platelet Suspensions
Blood is collected from Community Research Clinic volunteers who have not ingested aspirin or other non-steroidol antiinflammatory drugs within the preceeding two weeks and have not eaten within the nine hours before blood draw. Blood is taken in 4.5 ml portions in Vacutainer No. 6462S silicone-coated tubes or equivalent containing 0.5 ml of 3.8% trisodium citrate. Usually six or eight portions of 4.5 ml are drawn from each volunteer. The blood collected from three or four volunteers is pooled prior to centrifugation. […] The platelet count of the PRP is determined with a Coulter Thromobocounter. […]
Platelet-rich plasma adjusted to 250,000 platelets per microliter is distributed in 0.36 ml aliquots into silicone-coated cuvettes of 0.312 inch diameter. […] Extent of aggregation, using ADP stimulus, or rate of aggregation, using collagen stimulus, is determined using the Payton Scientific Dual Channel Aggregation Module, Model 300B. Appropriate concentrations of ADP or collagen are determined by an initial brief titration. […]
The major slope (that is, the slope of the first straight line portion) of the collagen-induced aggregation curve for each drug concentration is determined and compared to the slope of the curve for control aggregations. […]

Experiment [2] shares this test system. Nature of the experiment: Antithrombocyte aggregation test in vitro (ATA-8), collagen-induced, whole blood. Type of experiment: cell-based, human (Community Research Clinic volunteers). As to conditions: Homo sapiens, Platelet. As to the method:
as §1
Blood is collected from Community Research Clinic volunteers who have not ingested aspirin or other non-steroidol antiinflammatory drugs within the preceeding two weeks and have not eaten within the nine hours before blood draw. Blood is taken in 4.5 ml portions in Vacutainer No. 6462S silicone-coated tubes or equivalent containing 0.5 ml of 3.8% trisodium citrate. Usually six or eight portions of 4.5 ml are drawn from each volunteer. The blood collected from three or four volunteers is pooled prior to centrifugation. […]
Addition of drug solution or saline (0.02 ml) is followed in 5 min by addition of aggregating agent (ADP or collagen suspension, 0.02 ml). Extent of aggregation, using ADP stimulus, or rate of aggregation, using collagen stimulus, is determined using the Payton Scientific Dual Channel Aggregation Module, Model 300B. Appropriate concentrations of ADP or collagen are determined by an initial brief titration.
The major slope (that is, the slope of the first straight line portion) of the collagen-induced aggregation curve for each drug concentration is determined and compared to the slope of the curve for control aggregations. Values for drug test aggregations are expressed as "precent of control" and are plotted versus drug concentration on semilog paper. […]

Drawing on patent publication US4738954A, “Novel N^6 -substituted-5'-oxidized adenosine analogs” (Warner-Lambert Company, priority 1985, dated 1988), this text covers IC50 for one compound.

In the case of `CCNC(=O)[C@H]1O[C@@H](n2cnc3c(N[C@H](C)Cc4ccccc4)ncnc32)[C@H](O)[C@@H]1O` [Example 1, (R)-N-6-[(2-phenyl-1-methyl)ethyl]-adenosine-5'-ethylcarboxamide], the results for the IC50 in experiment [1] and in experiment [2] were 200 nM and 50 nM, respectively.
